pIC50: −log10 of the molar value.
Tests used:
IL-17A/F = target: T1, IL-17A/F (Homo sapiens, UniProt Q16552+Q96PD4); test: IL-17A/F HEK-Blue cell assay (SEAP reporter); format: cell-based; conditions: HEK-Blue IL-17A reporter cells, IL17A/F 5 ng/mL, 20 hours, SEAP read at A630; read-out: HEK-Blue IL17AF (IC50 for IL-17A/F inhibition)
T1 construct: purchased R&D Systems
T1 sequence (Q16552 24-155): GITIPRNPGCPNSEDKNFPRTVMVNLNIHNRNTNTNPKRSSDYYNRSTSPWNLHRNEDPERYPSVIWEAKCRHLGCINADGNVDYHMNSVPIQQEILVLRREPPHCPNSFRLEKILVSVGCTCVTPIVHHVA
T1 sequence (Q96PD4 31-163): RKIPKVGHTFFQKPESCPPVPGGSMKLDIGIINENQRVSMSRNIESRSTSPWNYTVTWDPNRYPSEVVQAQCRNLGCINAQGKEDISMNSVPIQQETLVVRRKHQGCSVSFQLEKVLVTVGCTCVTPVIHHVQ
Protocol: (§1) The HEK-Blue IL-17A reporter cell line (Fisher #NC 1408637) was used for cell-based IL-17A/A inhibition assays. Cells were grown and prepared for assays according to the manufacturer's instructions. This cell line consists of HEK 293 cells that were designed to expressed IL-17RA, IL-17RC, and the Act1 adapter molecule, the combination of which, when stimulated by IL-17A/A or IL17A/F activates a […] promoter and drives expression of the recombinant Secreted Alkaline Phosphatase (SEAP) gene. Media from the cells is then added to a development reagent (Quanti-Blue Substrate, Fisher #NC971 1613), and read at A630.
(§2) Compounds were dispensed in DMSO to an empty clear 384-well tissue culture plate in a titration ranging from 10 μM to 27 pM, with DMSO added to every well to a final concentration of […]. Cells were then added to the plate (45 μL/well at a concentration of 280,000 cells/mL). IL17A/A (Genscript #Z03228) or IL17A/F (R&D Systems) was added to the plate to a final concentration of 5 ng/mL and a final well volume of 50 μL. The cells, compound, and IL-17A/A or IL17A/F were then incubated for 20 hours before media was removed for SEAP analysis. The resulting inhibition curve was then analyzed using Dotmatics' integrated 4-parameter fit screening protocol to generate IC50 values.
(§3) Table 2 includes IC50 values for IL-17A/A and IL-17A/F inhibition of selected compounds; with compounds having a IC50 of A<100 nM; B 100-1000 nM; and C>1000 nM.

IL-17A/A = target: T2, IL-17A/A (Homo sapiens, UniProt Q16552); test: IL-17A/A HEK-Blue cell assay (SEAP reporter); format: cell-based; conditions: HEK-Blue IL-17A reporter cells, IL17A/A 5 ng/mL, 20 hours, SEAP read at A630; read-out: HEK-Blue IL17AA (IC50 for IL-17A/A inhibition)
T2 construct: purchased Genscript Z03228
T2 sequence (Q16552 24-155): T1 sequence (Q16552 24-155)
Protocol: as §1, §2, §3

pIC50 (IL-17A/F)	pIC50 (IL-17A/A)	Structure (SMILES)
6.00 to 7.00	> 7.00	CCn1nccc1C(=O)N[C@H](c1cn2nc(CC3C[C@@H](C(F)(F)F)CNC3=O)c(N3CCOCC3)nc2n1)[C@H]1CCCC(F)(F)C1 (single isomer, unassigned) [Compound 90]
6.00 to 7.00	> 7.00	CCn1nccc1C(=O)N[C@H](c1cn2nc(CC3C[C@@H](C(F)(F)F)CNC3=O)c(N3CCOCC3)nc2n1)[C@H]1CCCC(F)(F)C1 (single isomer, unassigned) [Compound 91]
6.00 to 7.00	> 7.00	CCn1nccc1C(=O)N[C@H](c1cn2nc(CC3C[C@@H](C(F)(F)F)CNC3=O)c(N3CC4CC(C3)O4)nc2n1)[C@H]1CCCC(F)(F)C1 (single isomer, unassigned) [Compound 92]
6.00 to 7.00	> 7.00	CCn1nccc1C(=O)N[C@H](c1cn2nc(CC3C[C@@H](C(F)(F)F)CNC3=O)c(N3CC4CC(C3)O4)nc2n1)[C@H]1CCCC(F)(F)C1 (single isomer, unassigned) [Compound 93]
6.00 to 7.00	> 7.00	CCn1nccc1C(=O)N[C@H](c1cn2nc(CC3C[C@@H](C(F)(F)F)CNC3=O)c(N3CCOCC3)nc2n1)[C@@H]1CCCC(F)(F)C1 (single isomer, unassigned) [Compound 94]
6.00 to 7.00	> 7.00	CCn1nccc1C(=O)N[C@H](c1cn2nc(CC3C[C@@H](C(F)(F)F)CNC3=O)c(N3CCOCC3)nc2n1)[C@@H]1CCCC(F)(F)C1 (single isomer, unassigned) [Compound 95]
6.00 to 7.00	> 7.00	CCn1nccc1C(=O)N[C@H](c1cn2nc(CC3C[C@@H](C(F)(F)F)CNC3=O)c(N3CC4CC(C3)O4)nc2n1)[C@@H]1CCCC(F)(F)C1 (single isomer, unassigned) [Compound 96]
< 6.00	> 7.00	CCn1nccc1C(=O)N[C@H](c1cn2nc(CC3C[C@@H](C(F)(F)F)CNC3=O)c(N3CC4CC(C3)O4)nc2n1)[C@@H]1CCCC(F)(F)C1 (single isomer, unassigned) [Compound 97]
> 7.00	> 7.00	CCn1nccc1C(=O)N[C@H](c1cn2nc(CC3C[C@@H](C(F)(F)F)CNC3=O)c(N3C[C@@H]4C[C@H]3CO4)nc2n1)C1CCC(F)(F)CC1 (single isomer, unassigned) [Compound 98]
< 6.00	> 7.00	CCn1nccc1C(=O)N[C@H](c1cn2nc(CC3C[C@@H](C(F)(F)F)CNC3=O)c(N3C[C@@H]4C[C@H]3CO4)nc2n1)C1CCC(F)(F)CC1 (single isomer, unassigned) [Compound 99]
> 7.00	> 7.00	CC(C)n1nccc1C(=O)N[C@H](c1cn2nc(CC3C[C@@H](C(F)(F)F)CNC3=O)c(N3CCOCC3)nc2n1)[C@H]1CC[C@H](C)CC1 (single isomer, unassigned) [Compound 100]
6.00 to 7.00	> 7.00	CC(C)n1nccc1C(=O)N[C@H](c1cn2nc(CC3C[C@@H](C(F)(F)F)CNC3=O)c(N3CCOCC3)nc2n1)[C@H]1CC[C@H](C)CC1 (single isomer, unassigned) [Compound 101]
> 7.00	> 7.00	CCn1nccc1C(=O)N[C@H](c1cn2nc(CC3C[C@@H](C(F)(F)F)CNC3=O)c(N3CC4CC(C3)O4)nc2n1)[C@H]1CC[C@H](C)CC1 (single isomer, unassigned) [Compound 102]
6.00 to 7.00	> 7.00	CCn1nccc1C(=O)N[C@H](c1cn2nc(CC3C[C@@H](C(F)(F)F)CNC3=O)c(N3CC4CC(C3)O4)nc2n1)[C@H]1CC[C@H](C)CC1 (single isomer, unassigned) [Compound 103]
> 7.00	> 7.00	CCn1nccc1C(=O)N[C@H](c1cn2nc(CC3C[C@@H](C(F)(F)F)CNC3=O)c(N3CC4CCC(C3)O4)nc2n1)[C@H]1CC[C@H](C)CC1 (single isomer, unassigned) [Compound 104]
6.00 to 7.00	> 7.00	CCn1nccc1C(=O)N[C@H](c1cn2nc(CC3C[C@@H](C(F)(F)F)CNC3=O)c(N3CC4CCC(C3)O4)nc2n1)[C@H]1CC[C@H](C)CC1 (single isomer, unassigned) [Compound 105]
< 6.00	> 7.00	CCn1nccc1C(=O)N[C@H](c1cn2nc(CC3C[C@@H](C(F)(F)F)CNC3=O)c(N3C[C@H]4C[C@@H]3CO4)nc2n1)[C@H]1CC[C@H](C)CC1 (single isomer, unassigned) [Compound 106]
6.00 to 7.00	> 7.00	CCn1nccc1C(=O)N[C@H](c1cn2nc(CC3C[C@@H](C(F)(F)F)CNC3=O)c(N3C[C@H]4C[C@@H]3CO4)nc2n1)[C@H]1CC[C@H](C)CC1 (single isomer, unassigned) [Compound 107]
> 7.00	> 7.00	CCn1nccc1C(=O)N[C@H](c1cn2nc(CC3C[C@@H](C(F)(F)F)CNC3=O)c(N3C[C@@H]4C[C@H]3CO4)nc2n1)[C@H]1CC[C@H](C)CC1 (single isomer, unassigned) [Compound 108]
6.00 to 7.00	> 7.00	CCn1nccc1C(=O)N[C@H](c1cn2nc(CC3C[C@@H](C(F)(F)F)CNC3=O)c(N3C[C@@H]4C[C@H]3CO4)nc2n1)[C@H]1CC[C@H](C)CC1 (single isomer, unassigned) [Compound 109]
6.00 to 7.00	> 7.00	CCn1nccc1C(=O)N[C@H](c1cn2nc(CC3C[C@@H](C(F)(F)F)CNC3=O)c(N3CCOCC3)nc2n1)C(C1CC1)C1CC1 (single isomer, unassigned) [Compound 111]
6.00 to 7.00	> 7.00	CCn1nccc1C(=O)N[C@H](c1cn2nc(CC3C[C@@H](C(F)(F)F)CNC3=O)c(N3CCOCC3)nc2n1)C(C1CC1)C1CC1 (single isomer, unassigned) [Compound 112]
6.00 to 7.00	> 7.00	O=C(N[C@H](c1cn2nc(CC3C[C@@H](C(F)(F)F)CNC3=O)c(N3CCOCC3)nc2n1)C1CCC(F)(F)CC1)c1conc1C1CC1(F)F (single isomer, unassigned) [Compound 113]
< 6.00	> 7.00	O=C(N[C@H](c1cn2nc(CC3C[C@@H](C(F)(F)F)CNC3=O)c(N3CCOCC3)nc2n1)C1CCC(F)(F)CC1)c1conc1C1CC1(F)F (single isomer, unassigned) [Compound 114]
< 6.00	> 7.00	O=C(N[C@H](c1cn2nc(CC3C[C@@H](C(F)(F)F)CNC3=O)c(N3CCOCC3)nc2n1)C1CCC(F)(F)CC1)c1conc1C1CC1(F)F (single isomer, unassigned) [Compound 115]
< 6.00	> 7.00	O=C(N[C@H](c1cn2nc(CC3C[C@@H](C(F)(F)F)CNC3=O)c(N3CCOCC3)nc2n1)C1CCC(F)(F)CC1)c1conc1C1CC1(F)F (single isomer, unassigned) [Compound 116]
< 6.00	6.00 to 7.00	C[C@H]1CC[C@H]([C@H](NC(=O)C2(F)CC2)c2cn3nc(CC4C[C@@H](C(F)(F)F)CNC4=O)c(N4CCOCC4)nc3n2)CC1 (single isomer, unassigned) [Compound 118]
< 6.00	6.00 to 7.00	C[C@H]1CC[C@H]([C@H](NC(=O)C2(F)CC2)c2cn3nc(CC4C[C@@H](C(F)(F)F)CNC4=O)c(N4CCOCC4)nc3n2)CC1 (single isomer, unassigned) [Compound 120]

Source: patent US20260226068A1, “IMIDAZOTRIAZINE IL-17A MODULATORS AND USES THEREOF” (DICE ALPHA, INC., priority 2023, published 2026)
